Laboratory results as given in patent US20090143454A1, “Pyrazoline Derivatives and Their Use As Pesticides” (BAYER CROPSCIENCE AG, priority 2001, published 2009).

Tested on: Heliothis virescens caterpillars
Test: Heliothis virescens test
Format: in vivo
Conditions: 500 ppm, soyabean shoots dipped
Description: (§1) To produce a suitable preparation of active compound, 1 part by weight of active compound is mixed with the stated amounts of solvent and emulsifier, and the concentrate is diluted with emulsifier-containing water to the desired concentration.
Soyabean shoots (Glycine max) are treated by being dipped into the preparation of active compound of the desired concentration and are populated with Heliothis virescens caterpillars while the leaves are still moist.
(§2) After the desired period of time, the kill in % is determined. 100% means that all caterpillars have been killed; 0% means that none of the caterpillars have been killed.

With N#Cc1cnn(C2CN(C(=O)Nc3ccc(OC(F)(F)F)cc3)N=C2c2ccc(Cl)cc2)c1 (stereo not drawn) [drawing 38] as the compound, how does the “Kill rate in % after 7 d” value read?
Its value is 100%.

N#Cc1cnn(C2CN(C(=O)Nc3ccc(SC(F)(F)F)cc3)N=C2c2ccc(Cl)cc2)c1 (stereo not drawn) [drawing 41] was tested. Which “Kill rate in % after 7 d” value did it give?
Its value is 100%.

Which “Kill rate in % after 7 d” value does the source give for N#Cc1cnn(C2CN(C(=O)Nc3ccc(C(F)(F)F)cc3)N=C2c2ccc(Cl)cc2)c1 (stereo not drawn) [drawing 39] here?
The value was 100%.

For N#Cc1cnn(C2CN(C(=O)Nc3ccc(Cl)cc3)N=C2c2ccc(Cl)cc2)c1 (stereo not drawn) [drawing 40], which “Kill rate in % after 7 d” value is on record?
The value was 100%.

Tested on: caterpillars of the diamond back moth (Plutella xylostella)
Test: Plutella test
Format: in vivo
Conditions: 500 ppm, cabbage leaves dipped
Description: as §1
Cabbage leaves (Brassica oleracea) are treated by being dipped into the preparation of active compound of the desired concentration and are populated with caterpillars of the diamond back moth (Plutella xylostella) while the leaves are still moist.
as §2

With N#Cc1cnn(C2CN(C(=O)Nc3ccc(Cl)cc3)N=C2c2ccc(Cl)cc2)c1 (stereo not drawn) [drawing 55] as the compound, how does the “Kill rate in % after 7 d” value read?
The value was 100%.

Which “Kill rate in % after 7 d” value does the source give for N#Cc1cnn(C2CN(C(=O)Nc3ccc(SC(F)(F)F)cc3)N=C2c2ccc(Cl)cc2)c1 (stereo not drawn) [drawing 56] here?
The value was 100%.

N#Cc1cnn(C2CN(C(=O)Nc3ccc(OC(F)(F)F)cc3)N=C2c2ccc(Cl)cc2)c1 (stereo not drawn) [drawing 53] was tested. Which “Kill rate in % after 7 d” value did it give?
The value was 100%.

Which “Kill rate in % after 7 d” value does the source give for N#Cc1cnn(C2CN(C(=O)Nc3ccc(C(F)(F)F)cc3)N=C2c2ccc(Cl)cc2)c1 (stereo not drawn) [drawing 54] here?
Its value is 100%.

Tested on: larvae of the army worm (Spodoptera frugiperda)
Test: Test for persistency: Spodoptera frugiperda
Format: in vivo
Conditions: 20 ppm; cotton plants sprayed; infection after 5 d
Description: as §1
Cotton plants (Gossypium hirsutum) are sprayed with a preparation of active compound of the desired concentration. After the stated number of days, larvae of the army worm (Spodoptera frugiperda) are, in infection chambers, placed on the treated leaves.
as §2

For N#Cc1cnn(C2CN(C(=O)Nc3ccc(SC(F)(F)F)cc3)N=C2c2ccc(Cl)cc2)c1 (stereo not drawn) [drawing 77], which “Kill rate in % 7 d after infection” value is on record?
Its value is 90%.

N#Cc1cnn(C2CN(C(=O)Nc3ccc(C(F)(F)F)cc3)N=C2c2ccc(Cl)cc2)c1 (stereo not drawn) [drawing 76] was tested. Which “Kill rate in % 7 d after infection” value did it give?
The value was “infection after: 5^d 12^d 19^d 100 100 100%”.

How did the “Kill rate in % 7 d after infection” value turn out when N#Cc1cnn(C2CN(C(=O)Nc3ccc(OC(F)(F)F)cc3)N=C2c2ccc(Cl)cc2)c1 (stereo not drawn) [drawing 75] was run?
The value was “infection after: 5^d 12^d 19^d 100 100 100%”.

Same assay, conditions: 20 ppm; cotton plants sprayed; infection after 12 d

With N#Cc1cnn(C2CN(C(=O)Nc3ccc(SC(F)(F)F)cc3)N=C2c2ccc(Cl)cc2)c1 (stereo not drawn) [drawing 77] as the compound, how does the “Kill rate in % 7 d after infection” value read?
The value was 100%.

With N#Cc1cnn(C2CN(C(=O)Nc3ccc(C(F)(F)F)cc3)N=C2c2ccc(Cl)cc2)c1 (stereo not drawn) [drawing 76] as the compound, how does the “Kill rate in % 7 d after infection” value read?
The value was “infection after: 5^d 12^d 19^d 100 100 100%”.

For N#Cc1cnn(C2CN(C(=O)Nc3ccc(OC(F)(F)F)cc3)N=C2c2ccc(Cl)cc2)c1 (stereo not drawn) [drawing 75], which “Kill rate in % 7 d after infection” value is on record?
The value was “infection after: 5^d 12^d 19^d 100 100 100%”.

Same assay, conditions: 20 ppm; cotton plants sprayed; infection after 19 d

How did the “Kill rate in % 7 d after infection” value turn out when N#Cc1cnn(C2CN(C(=O)Nc3ccc(SC(F)(F)F)cc3)N=C2c2ccc(Cl)cc2)c1 (stereo not drawn) [drawing 77] was run?
Its value is 100%.

For N#Cc1cnn(C2CN(C(=O)Nc3ccc(C(F)(F)F)cc3)N=C2c2ccc(Cl)cc2)c1 (stereo not drawn) [drawing 76], which “Kill rate in % 7 d after infection” value is on record?
Its value is “infection after: 5^d 12^d 19^d 100 100 100%”.

Which “Kill rate in % 7 d after infection” value does the source give for N#Cc1cnn(C2CN(C(=O)Nc3ccc(OC(F)(F)F)cc3)N=C2c2ccc(Cl)cc2)c1 (stereo not drawn) [drawing 75] here?
Its value is “infection after: 5^d 12^d 19^d 100 100 100%”.

Tested on: caterpillars of the army worm (Spodoptera frugiperda)
Test: Spodoptera frugiperda test
Format: in vivo
Conditions: 168 h, cabbage leaves dipped, after 7 d, read-out: Kill rate in % after 7 d
Description: as §1
Cabbage leaves (Brassica oleracea) are treated by being dipped into the preparation of active compound of the desired concentration and are populated with caterpillars of the army worm (Spodoptera frugiperda) while the leaves are still moist.
as §2

N#Cc1cnn(C2CN(C(=O)Nc3ccc(C(F)(F)F)cc3)N=C2c2ccc(Cl)cc2)c1 (stereo not drawn) [drawing 62] was tested. Which pest or weed control at 500 ppm did it give?
Its pest or weed control at 500 ppm is 100%.

For N#Cc1cnn(C2CN(C(=O)Nc3ccc(SC(F)(F)F)cc3)N=C2c2ccc(Br)cc2)c1 (stereo not drawn) [drawing 66], which pest or weed control at 500 ppm is on record?
Its pest or weed control at 500 ppm is 100%.

For N#Cc1cnn(C2CN(C(=O)Nc3ccc(OC(F)(F)F)cc3)N=C2c2ccc(I)cc2)c1 (stereo not drawn) [drawing 68], which pest or weed control at 500 ppm is on record?
The pest or weed control at 500 ppm was 100%.

For N#Cc1cnn(C2CN(C(=O)Nc3ccc(OC(F)(F)F)cc3)N=C2c2ccc(SC(F)(F)F)cc2)c1 (stereo not drawn) [drawing 70], which pest or weed control at 500 ppm is on record?
The pest or weed control at 500 ppm was 100%.

How did the pest or weed control at 500 ppm turn out when N#CCN(C(=O)N1CC(n2cc(C#N)cn2)C(c2ccc(Cl)cc2)=N1)c1ccc(OC(F)(F)F)cc1 (stereo not drawn) [drawing 63] was run?
Its pest or weed control at 500 ppm is 100%.

How did the pest or weed control at 500 ppm turn out when N#Cc1cnn(C2CN(C(=O)Nc3ccc(S(=O)(=O)C(F)(F)F)cc3)N=C2c2ccc(Br)cc2)c1 (stereo not drawn) [drawing 67] was run?
The pest or weed control at 500 ppm was 100%.

CCOC(=O)N(C(=O)N1CC(n2cc(C#N)cn2)C(c2ccc(Cl)cc2)=N1)c1ccc(OC(F)(F)F)cc1 (stereo not drawn) [drawing 64] was tested. Which pest or weed control at 500 ppm did it give?
Its pest or weed control at 500 ppm is 100%.

For N#Cc1cnn(C2CN(C(=O)Nc3ccc(SC(F)(F)F)cc3)N=C2c2ccc(I)cc2)c1 (stereo not drawn) [drawing 69], which pest or weed control at 500 ppm is on record?
Its pest or weed control at 500 ppm is 100%.

N#Cc1cnn(C2CN(C(=O)Nc3ccc(OC(F)(F)F)cc3)N=C2c2ccc(Br)cc2)c1 (stereo not drawn) [drawing 65] was tested. Which pest or weed control at 500 ppm did it give?
The pest or weed control at 500 ppm was 100%.

For N#Cc1cnn(C2CN(C(=O)Nc3ccc(SC(F)(F)F)cc3)N=C2c2ccc(SC(F)(F)F)cc2)c1 (stereo not drawn) [drawing 71], which pest or weed control at 500 ppm is on record?
The pest or weed control at 500 ppm was 100%.
